Results as given in patent US20230245787A1, “METHODS FOR PREDICTING SYNERGISTIC DRUG COMBINATION” (GenomiCare Biotechnology (Shanghai) Co., Ltd, priority 2020, published 2023).

Test system: Hepatocellular Carcinoma (HCC) and Intrahepatic Cholangiocarcinoma (ICC)
Assay: Exhaustive Cox proportional hazards (ECPH) model on real-world survival data of drug combination groups
Format: in vivo, human
Details: Cox PH
[1] = Regorafenib x Lenvatinib groups (Contingency Table B)
[2] = Sorafenib x Lenvatinib groups (Contingency Table A)

From the text: Then, a novel exhaustive Cox proportional hazards model (ECPH) model is used to evaluate all possible drug combinations with respect to their efficacy in prolonging patients' lives. In terms of efficacy, there can be three types of drug interaction: additive, synergistic, and antagonistic.
The approach used in the present disclosure further extends the CPH model. In an example process, drugs used for fewer than one treatment cycle or the number of patients in any variables less than 15 were removed. Then, a 2×2 contingency table is set up, in which rows are defined by every unique genomic or clinical variable, and the columns are defined by drug variable (See Table 3 as an illustration). Then the CPH model (as described in “The Robust Inference for the Cox Proportional Hazards Model”, D. Y. Lin &L. J. Wei, Journal of the Am. Stat. Assoc., pp. 1074-1078, 1989) is used to calculate independent risk factors, cumulative hazard-ratios, and p-values for each drug combination table.
Additive combination definition: The HR score of the drug A+ plus factor B+ group is between the other two treatment groups (A+B− and A−B+). The P-value of the drug A+ plus factor B+ group is not statistically significant compared with the other two treatment groups (A+B− and A−B+).
Synergistic combination definition: The HR score of the drug A+ plus factor B+ group is smaller than the other two treatment groups (A+B− and A−B+). […] The drug A+ plus factor B+ group is the statistically independent variable of the other two treatment groups (A+B− and A−B+).
In this example, data were collected and analyzed in the following steps:
(2) Real-world clinical electronic health records (EHRs) collection, clinical data entry and l long-term follow-up, according to the flowchart shown in FIG. 4.
(3) Comprehensive genomic data is matched with real-world treatment patterns and clinical outcomes feature database and analysis workflow, as shown in FIG. 5.
(4) A large one-hot encoding matrix(˜10,000*10,000) of comprehensive genomic and clinical factors. Based on the one-hot encoding matrix, the combined effects of all factors such as: age, gender, gene mutation, and drug treatment can be obtained.
(5) Applying exhaustive Cox proportional hazards model (ECPH) model
a. Patients are divided into four categories based on the combined use of the two drugs. For an example: Patients treated with Lenvatinib and without Sorafenib were defined as the Lenvatinib treatment group. Patients treated with Sorafenib and without Lenvatinib were defined as the Sorafenib treatment group. Patients treated with Sorafenib and Lenvatinib were defined as the Sorafenib-Lenvatinib treatment group. Patients treated without Sorafenib and Lenvatinib were defined as Sorafenib-Lenvatinib free treatment group.
b. 2×2 contingency tables were calculated for all possible drug combinations pairs: Millions of possible combinations of Lenvatinib.
c. Cox PH model (The Robust Inference for the Cox Proportional Hazards Model D. Y. Lin &L. J. Wei Pages 1074-1078) was used to calculate independent risk factors, cumulative hazard-ratios, and p-values for each drug combination table. […] It can be estimated as follow: h(t)=h0(t)×exp(b1x1+b2x2+ . . . +bpxp) where, • t represents the survival time. • h(t) is the hazard function determined by a set of p covariates (x1, x2, . . . , xp) • the coefficients (b1, b2, . . . , bp) measure the impact (i.e., the effect size) of covariates. • the term h0 is referred to the baseline hazard.

Row | Structure (SMILES) | HR (hazard ratio) (PD-1/PD-L1 x Lenvatinib groups (Contingency Table C), Chinese HCC and ICC patients) | HR (hazard ratio) [1] | HR (hazard ratio) [2]
1 | COc1cc2nccc(Oc3ccc(NC(=O)NC4CC4)c(Cl)c3)c2cc1C(N)=O [Lenvatinib] | 1.00 | 0.74 | 0.56
2 | CNC(=O)c1cc(Oc2ccc(NC(=O)Nc3ccc(Cl)c(C(F)(F)F)c3)c(F)c2)ccn1 [Regorafenib] | – | 0.99 | –
3 | CNC(=O)c1cc(Oc2ccc(NC(=O)Nc3ccc(Cl)c(C(F)(F)F)c3)cc2)ccn1 [Sorafenib] | – | – | 0.76
